Source: PubChem BioAssay (NCI)
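Each compound was tested at five concentrations against cells in 96-well plates for 48 hours. TGI: concentration producing complete growth inhibition.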

Key:
Test in all cases: NCI-60 cell line screen, 48 h
ACHN renal = test system: ACHN renal
CAKI-1 renal = test system: CAKI-1 renal
SN12C renal = test system: SN12C renal
SW-620 colon = test system: SW-620 colon
HOP-18 NSCLC = test system: HOP-18 NSCLC
NCI-H522 lung = test system: NCI-H522 lung
A549 NSCLC = test system: A549 NSCLC
XF 498 CNS = test system: XF 498 CNS
RXF 393 renal = test system: RXF 393 renal
DMS 114 small cell lung = test system: DMS 114 small cell lung
SNB-78 CNS = test system: SNB-78 CNS
MCF7 breast = test system: MCF7 breast

Row | SMILES | TGI (ACHN renal) [µM] | TGI (CAKI-1 renal) [µM] | TGI (SN12C renal) [µM] | TGI (SW-620 colon) [µM] | TGI (HOP-18 NSCLC) [µM] | TGI (NCI-H522 lung) [µM] | TGI (A549 NSCLC) [µM] | TGI (XF 498 CNS) [µM] | TGI (RXF 393 renal) [µM] | TGI (DMS 114 small cell lung) [µM] | TGI (SNB-78 CNS) [µM] | TGI (MCF7 breast) [µM]
1 | Cn1c(O)c(C(=O)NC2CCCCC2)c(=O)n(C)c1=S | 13.7 | 26.5 | 59.9 | 25 | 9.63 | 16.9 | 17.4 |  |  |  |  | 
2 | O=C(Nc1cc(Cl)c(Cl)cc1Cl)C(=O)C1C(=O)NC(=S)NC1=O | > 100 | > 100 | > 100 | > 100 | > 100 | > 100 | > 100 | > 100 | > 100 | > 100 | > 100 | 
3 | CC1=CCC(O)C=CC(C)C(O)C(C)C=C(C)C(=O)c2c(O)c(C)cc3c2C(=O)C(N)=C(NC(=O)/C=C\C=C/C=CC(C)C(O)CC1=O)C3=O (stereo unspecified) | > 100 | > 100 | > 100 | > 100 |  | 35.3 | > 100 | > 100 |  | > 100 | > 100 | 
4 | CCCCCCCCCCCC(=O)OCC(C[As](=O)(O)O)OC(=O)CCCCCCCCCCC (stereo unspecified) | 5.04 | 21.7 | 8.27 | 26.8 | 14.1 | 4.33 | 25.8 | 7.28 | 5.86 | 3.13 | 7.69 | 13
5 | O=Cc1ccccc1COC(=O)c1cc(C(=O)OCc2ccccc2C=O)c(C(=O)OCc2ccccc2C=O)cc1C(=O)OCc1ccccc1C=O | > 100 | > 100 | > 100 | > 100 | > 100 | > 100 | > 100 | > 100 | > 100 | > 100 | > 100 | 
6 | Cc1cc(N(CCC#N)CCC#N)ccc1/C=C(\NC(=O)/C=C/c1ccccc1)C(N)=O | > 100 | > 100 | > 100 | > 100 |  | > 100 | > 100 | > 100 | 21 | > 100 | > 100 | 
7 | CCN(CC)C1CC(O[C@H]2C[C@](O)(C(=O)CO)Cc3c(O)c4c(c(O)c32)C(=O)c2c(OC)cccc2C4=O)OC(C)C1O (stereo partly specified) | 0.208 |  | 1.25 | 0.328 |  | 0.121 | 0.394 | 0.223 | 0.123 | 0.274 | 0.785 | 
8 | Nc1nc([O-])c2c(n1)[n+](C1OC(CO)C(O)C1O)cn2CCO (stereo unspecified) | > 100 | > 100 | > 100 | > 100 | > 100 | > 100 | > 100 | > 100 | > 100 | > 100 | > 100 | 
9 | C[Si](C)(C)OC1CC(=O)OC1n1cc(F)c(=O)[nH]c1=O (stereo unspecified) | > 100 | > 100 | > 100 | > 56 | > 100 | > 100 | > 100 | > 100 | 98.4 | > 100 |  | 
10 | O=c1cc(-c2ccc(Oc3ccccc3)cc2)[nH]c2cc3c(cc12)OCO3 | > 100 |  | > 100 | > 100 |  |  | > 100 | > 100 | > 100 | > 100 |  | 
11 | CN=C(SC)N(C)c1nc(=[N+](C)C)ss1 | > 100 | > 100 | > 100 | > 100 |  | > 100 | > 100 | > 100 | > 100 |  | > 100 | 
12 | CC(=O)O[C@H]1C(=O)[C@@]2(C)C(C(OC(=O)c3ccccc3)[C@]3(O)CC(OC(=O)C(O)C(NC(=O)c4ccc(C(F)(F)F)cc4)c4ccccc4)C(C)=C1C3(C)C)[C@]1(OC(C)=O)CO[C@@H]1C[C@@H]2O (stereo partly specified) | > 37.5 | > 37.5 | 11.6 | 0.763 | 31 | 0.2 | > 37.5 | 3.09 |  | 0.122 | 10.1 | 
13 | CCOC(=O)CC(C)C1(C(=O)OCC)CCCCC1=O (stereo unspecified) | > 100 | > 100 | > 100 |  | > 100 | > 100 | > 100 | > 100 | > 100 | 39.4 | > 100 | 
14 | CN(C)CC1CCCC(CN(C)C)C1OC(=O)c1ccccc1 (stereo unspecified) | > 100 | > 100 | > 100 | > 100 | > 100 | > 100 | > 100 |  | > 100 |  | > 100 | 
15 | Cc1cc(NS(=O)(=O)c2ccc(Nc3c4ccccc4nc4c(C(=O)N5CCN(CCO)CC5)cccc34)cc2)no1 | > 100 | > 100 | > 100 | > 100 | > 100 | > 100 | > 100 | > 100 | > 100 | > 100 | > 100 | 
16 | C=C(C)[C@H]1Cc2c(ccc3c2O[C@@H]2COc4cc(OC)c(OC)cc4[C@@H]2C3=O)O1 | 87 | 63.8 | 67.5 | 82.8 | > 89.7 | 0.404 | > 100 | 0.302 | 6.41 | 0.145 | 45.3 | > 84.2
17 | C1=Cc2cc3c(c4nccc(c24)N1)OCO3 | > 34.4 | > 32.1 | > 39.2 | > 57.8 |  | 26.2 | > 41.7 |  | 5.64 |  |  | 16.1
18 | O=C1c2ccccc2C(=O)N1CCCCNOCCCN1C(=O)c2ccccc2C1=O | > 100 | > 100 | > 100 | > 100 |  | > 100 | > 100 |  | > 100 |  |  | > 100
19 | N#Cc1c(-c2ccccc2)[nH]c2ccc(Cl)cc2c1=O | > 100 | > 100 | > 100 | > 100 |  | > 100 | > 100 |  | 49 |  |  | > 100
20 | O=C(Nc1ccccc1-c1nc2ccccc2[nH]c1=O)c1ccccc1 | 45 | 86.8 | 69.1 | 73.7 |  | 46.1 | 69.9 | 49.9 | 43.6 | 40.7 | 69.2 | 
21 | O=C1c2ccsc2C(=O)c2sc(CO)cc21 | 0.238 | 9.69 | 0.0818 | 0.164 | 0.113 | 0.259 | 0.125 | 1.14 | 1.9 |  | 0.978 | 
22 | CC(=O)ONC(C(=O)C(C)(C)C)C(=O)C(C)(C)C | > 100 | > 100 | > 100 | > 100 |  | > 100 | > 100 |  | > 100 |  |  | > 100
23 | CC(CC[C@@]1(C)C(=O)CCC2O[C@]21C)[C@H]1C[C@@H](c2ccoc2)OC1=O (stereo partly specified) | 48 | 71.8 | 79.9 | 91.8 |  | 22.2 | > 100 |  | 39.8 |  |  | > 100
24 | CCOC1=NC(O)c2cccn2-c2sccc21 (stereo unspecified) | > 100 | > 100 | > 100 | > 100 |  | > 100 | > 100 |  | > 100 |  |  | > 100
25 | COC(=O)c1cc2c(cc1CC(Cc1ccc3c(c1)CCCC3)C(=O)OC)CCCC2 (stereo unspecified) | > 100 | > 100 | > 100 | > 100 |  | > 100 | > 100 |  | 72.9 |  |  | > 100
26 | CC(C)=C[C@H]1CCC2(OCCO2)[C@]1(C)COCc1ccccc1 | > 100 | > 100 | 68.5 | > 100 |  | 62.1 | > 100 |  | 31.7 |  |  | > 100
27 | CN(C)CCCN=c1c2ccccc2n(O)c2ccccc12 | > 100 | > 100 | > 100 | > 100 |  | > 100 | > 100 |  | > 100 |  |  | > 100
28 | Nc1nc(-c2ccccc2)cc(-c2ccc(OCc3ccccc3)cc2O)n1 | > 100 | > 100 | > 100 | > 100 |  | 90.7 | > 100 |  | 76.8 |  |  | > 100
29 | COC1=C(OC)C(=O)C(Cc2c(C)nc3sccn23)=C(C)C1=O | 30.1 | 34.9 | 31 | 34.8 |  | 54.9 | 40.3 |  | 51.7 |  |  | > 100
